Results: ChEMBL document CHEMBL3243990, “Hydantoins as antitumor agents” (1977)
Calls of active or inactive are those of the source. The calls are words filed in the database; no cut-off is given here.

Experiments:
[1] = test system: L1210; experiment: Antitumor activity against mouse L1210 cells allografted in mouse relative to control; type: functional, cell-based
[2] = test system: P388; experiment: Antitumor activity against mouse P388 cells allografted in mouse relative to control; type: functional

`O=C1NC(=O)C2(CSSC2)N1` was tested, and the Activity [1] was “inactive”.
With `CC1(c2ccco2)NC(=O)N(C(=O)CCl)C1=O` (centres undefined) the Activity [1] was “inactive”.
`CC1(c2cccs2)NC(=O)NC1=O` (centres undefined) was tested, and the Activity [1] was “inactive”.
In the case of `CC1(c2cccs2)NC(=O)N(C(=O)CCl)C1=O` (centres undefined), the Activity [1] is reported as “inactive”.
For `O=C1NC(c2cccs2)(c2cccs2)C(=O)N1Cl`, the Activity [1] was “inactive”.
In the case of `CC(=O)N1C(=O)NC(=O)C1(C)c1cccs1` (centres undefined), the Activity [1] is reported as “inactive”.
In the case of `O=C(CCl)N1C(=O)NC(c2ccc(Cl)cc2)(c2ccc(Cl)cc2)C1=O`, the Activity [1] is reported as “inactive” and the Activity [2] is reported as “inactive”.
For `CC(=O)N1C(=O)N(Cl)C(=O)C1(C)c1cccs1` (centres undefined), the Activity [1] was “inactive”.
For `CN1C(=O)NC(C)(c2cccs2)C1=O` (centres undefined), the Activity [1] was “inactive”.
In the case of `CC(=O)N1C(=O)NC(=O)C1(C)c1ccc(Cl)s1` (centres undefined), the Activity [1] is reported as “inactive”.
For `O=C1N(Cl)C(=O)C(c2ccc(C(F)(F)F)cc2)(c2ccc(C(F)(F)F)cc2)N1Cl`, the Activity [1] was “inactive” and the Activity [2] was “inactive”.
In the case of `CC1(c2ccc(Cl)s2)C(=O)N(Cl)C(=O)N1Cl` (centres undefined), the Activity [1] is reported as “inactive”.
For `O=C1NC(=O)C(c2ccc(C(F)(F)F)cc2)(c2ccc(C(F)(F)F)cc2)N1`, the Activity [1] was “inactive” and the Activity [2] was “inactive”.
For `CC1(c2ccc(Cl)s2)NC(=O)NC1=O` (centres undefined), the Activity [1] was “inactive”.
`CC(=O)N1C(=O)N(Cl)C(=O)C1(c1ccc(Cl)cc1)c1ccc(Cl)cc1` was tested, and the Activity [1] was “inactive” and the Activity [2] was “inactive”.
For `O=C1NC(=O)C(c2cccs2)(c2cccs2)N1`, the Activity [1] was “inactive”.
In the case of `CC1(c2cccs2)NC(=O)N(Cl)C1=O` (centres undefined), the Activity [1] is reported as “inactive”.
For `CN1C(=O)NC(c2ccc(Cl)cc2)(c2ccc(Cl)cc2)C1=O`, the Activity [1] was “inactive” and the Activity [2] was “inactive”.
With `O=C1N(Cl)C(=O)C(c2ccc(Cl)cc2)(c2ccc(Cl)cc2)N1Cl` the Activity [1] was “inactive” and the T/C [2] was 190%.
`CC(=O)N1C(=O)NC(=O)C1(C)c1ccco1` (centres undefined) was tested, and the Activity [1] was “inactive”.
In the case of `CC1(c2ccco2)NC(=O)NC1=O` (centres undefined), the Activity [1] is reported as “inactive”.
In the case of `O=C1NC(=O)C(c2ccc(Cl)cc2)(c2ccc(Cl)cc2)N1`, the Activity [1] is reported as “inactive”.
In the case of `CC1(c2ccco2)NC(=O)N(Cl)C1=O` (centres undefined), the Activity [1] is reported as “inactive”.
`CC(=O)N1C(=O)NC(c2ccc(Cl)cc2)(c2ccc(Cl)cc2)C1=O` was tested, and the Activity [1] was “inactive” and the Activity [2] was “inactive”.
In the case of `CC1(c2cccs2)C(=O)N(Cl)C(=O)N1Cl` (centres undefined), the Activity [1] is reported as “inactive”.
For `CC(=O)N1C(=O)NC(=O)C1(c1ccc(Cl)cc1)c1ccc(Cl)cc1`, the Activity [1] was “inactive” and the Activity [2] was “inactive”.
